A word on the IC50: it is the concentration at which inhibition is half-maximal. A lower IC50 goes with inhibition by little substance.

IC50 data for 17 molecules are collected here from patent US6667334B1, “Imidazolidine derivatives, the production thereof, their use and pharmaceutical preparations containing the same” (Aventis Pharma Deutschland GmbH, priority 1998, dated 2003).

T1 sequence (P13612 34-1032): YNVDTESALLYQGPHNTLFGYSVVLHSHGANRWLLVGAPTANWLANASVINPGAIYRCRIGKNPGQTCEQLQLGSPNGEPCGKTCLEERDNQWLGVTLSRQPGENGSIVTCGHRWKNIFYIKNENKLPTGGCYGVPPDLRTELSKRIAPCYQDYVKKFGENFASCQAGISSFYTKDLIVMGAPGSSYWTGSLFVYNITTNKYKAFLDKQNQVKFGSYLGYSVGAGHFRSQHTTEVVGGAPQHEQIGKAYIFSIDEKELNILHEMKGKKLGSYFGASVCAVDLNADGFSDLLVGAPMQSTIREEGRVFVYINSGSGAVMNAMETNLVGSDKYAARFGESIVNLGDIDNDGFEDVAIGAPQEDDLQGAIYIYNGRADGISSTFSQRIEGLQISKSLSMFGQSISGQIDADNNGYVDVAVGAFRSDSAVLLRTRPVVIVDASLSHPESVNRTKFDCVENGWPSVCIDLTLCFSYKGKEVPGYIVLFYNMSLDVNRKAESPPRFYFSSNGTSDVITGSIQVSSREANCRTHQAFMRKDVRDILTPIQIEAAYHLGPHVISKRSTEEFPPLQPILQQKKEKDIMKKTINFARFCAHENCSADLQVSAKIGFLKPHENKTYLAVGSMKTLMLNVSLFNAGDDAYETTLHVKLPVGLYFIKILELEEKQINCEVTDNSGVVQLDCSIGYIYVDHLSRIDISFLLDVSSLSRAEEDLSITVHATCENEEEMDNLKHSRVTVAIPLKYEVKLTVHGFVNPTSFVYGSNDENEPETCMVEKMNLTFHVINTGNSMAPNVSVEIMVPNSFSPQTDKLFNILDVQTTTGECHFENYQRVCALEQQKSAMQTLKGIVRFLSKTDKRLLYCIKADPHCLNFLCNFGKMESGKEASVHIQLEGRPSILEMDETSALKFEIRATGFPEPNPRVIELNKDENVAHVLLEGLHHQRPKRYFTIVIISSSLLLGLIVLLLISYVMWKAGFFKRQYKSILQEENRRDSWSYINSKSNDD
T1 sequence (P05556 21-798): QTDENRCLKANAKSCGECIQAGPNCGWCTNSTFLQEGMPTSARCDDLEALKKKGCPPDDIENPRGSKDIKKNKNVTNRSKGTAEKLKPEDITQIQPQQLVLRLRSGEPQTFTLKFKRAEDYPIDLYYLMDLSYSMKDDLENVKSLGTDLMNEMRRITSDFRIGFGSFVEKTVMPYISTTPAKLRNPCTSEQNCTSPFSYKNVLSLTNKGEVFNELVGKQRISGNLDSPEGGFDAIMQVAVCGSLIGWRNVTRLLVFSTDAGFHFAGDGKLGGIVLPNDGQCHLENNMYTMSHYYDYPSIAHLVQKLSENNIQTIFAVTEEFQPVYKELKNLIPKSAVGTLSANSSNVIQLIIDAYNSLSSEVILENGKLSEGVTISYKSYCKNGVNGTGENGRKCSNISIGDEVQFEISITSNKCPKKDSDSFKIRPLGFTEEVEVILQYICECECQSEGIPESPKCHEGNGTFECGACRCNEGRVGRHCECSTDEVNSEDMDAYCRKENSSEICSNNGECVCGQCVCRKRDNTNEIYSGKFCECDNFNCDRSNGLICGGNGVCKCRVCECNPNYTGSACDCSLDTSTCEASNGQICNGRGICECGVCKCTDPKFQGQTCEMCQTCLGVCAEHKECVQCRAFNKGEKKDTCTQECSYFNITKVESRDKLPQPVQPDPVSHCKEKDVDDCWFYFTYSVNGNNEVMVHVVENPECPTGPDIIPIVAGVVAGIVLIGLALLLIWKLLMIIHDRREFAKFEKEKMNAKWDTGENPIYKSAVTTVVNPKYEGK

This assay has as its target T1, interaction between VCAM-1 and VLA-4 (Homo sapiens, UniProt P05556+P13612).
T1 construct: the VLA-4 integrins, are supplied in their natural form as surface molecules on human U937 cells; host or cells: U937 cells carry the endogenous VLA-4; The partner hVCAM-1(1-3)-IgG was secreted by transfected COS cells (ATCC CRL1651) and used as culture supernatant
Description: U937/VCAM-1 cell adhesion test: adhesion of U937 cells to hVCAM-1(1-3)-IgG. Conditions: human U937 cells (ATCC CRL 1593) adhering to hVCAM-1(1-3)-IgG; concentration giving 50% inhibition of adhesion. The assay is classed as cell-based. From the text: The test method used for the activity of the compounds of the formula I on the interaction between VCAM-1 and VLA-4 is an assay which is specific for this interaction. The cellular binding components, i.e. the VLA-4 integrins, are supplied in their natural form as surface molecules on human U937 cells (ATCC CRL 1593), which belong to the leukocytes group. The specific binding components used are genetically engineered recombinant soluble fusion proteins, consisting of the extracytoplasmatic domain of human VCAM-1 and the constant region of a human immunoglobulin of the subclass IgGl.
Assay for the Measurement of the Adhesion of U937 Cells (ATCC CRL 1593) to hVCAM-1(1-3)-IgG
1. Preparation of Human VCAM-1(1-3)-IgG and Human CD4-IgG
A genetic construct for the expression of the extracellular domain of human VCAM-1, associated with the genetic sequence of the heavy chain of human immunoglobulin IgGI (hinge, CH2 and CH3 regions), from Dr. Brian Seed, Massachusetts General Hospital, Boston, USA was employed (cf. Damle and Aruffo, Proc. Natl. Acad. Sci. USA 1991, 88, 6403-6407). The soluble fusion protein hVCAM-1(1-3)-IgG contained the three amino-terminal extracellular immunoglobulin-like domains of human VCAM-1 (Damle and Aruffo, Proc. Natl. Acad. Sci. USA 1991, 88, 6403-6407). CD4-IgG (Zettlmeissl et al., DNA and Cell Biology 1990, 9, 347) served as a fusion protein for negative controls. The recombinant proteins were expressed as soluble proteins after DEAE/dextran-mediated DNA transfection in COS cells (ATCC CRL1651) according to standard procedures (Ausubel et al., Current Protocols in Molecular Biology, John Wiley & Sons, Inc., 1994).
2. Assay for the Measurement of the Adhesion of U937 Cells to hVCAM-1(1-3)-IgG
2.1 96-well microtiter test plates (Nunc Maxisorb) were incubated at room temperature for 1 hour with 100 μl/well of a goat-anti-human IgG antibody solution (10 μg/ml in 50 mM tris, pH 9.5). After removal of the antibody solution, washing was carried out once with PBS.
2.2 150 μl/well of a blocking buffer (1% BSA in PBS) was incubated on the plates at room temperature for 0.5 hour. After removal of the blocking buffer, washing was carried out once with PBS.
2.3 100 μl per well of a cell culture supernatant of transfected COS cells were incubated on the plates at room temperature for 1.5 hours. The COS cells were transfected with a plasmid which codes for the three N-terminal immunoglobulin-like domains of VCAM-1, coupled to the Fc part of human IgG, (hVCAM-1(1-3)-IgG). The content of hVCAM-1(1-3)-IgG was about 0.5-1 μg/ml. After removal of the culture supernatant, washing was carried out once with PBS.
2.4 The plates were incubated at room temperature for 20 minutes with 100 μl/well of Fc receptor blocking buffer (1 mg/ml of γ-globulin, 100 mM NaCl, 100 μM MgCl2, 100 μM MnCl2, 100 μM CaCl2, 1 mg/ml of BSA in 50 mM HEPES, pH 7.5). After removal of the Fc receptor blocking buffer, washing was carried out once with PBS.
2.5 20 μl of binding buffer (100 mM NaCl, 100 μM MgCl2, 100 μM MnCl2, 100 μM CaCl2, 1 mg/ml of BSA in 50 mM HEPES, pH 7.5) were initially introduced, and the substances to be tested were added in 10 μl of binding buffer and incubated for 20 minutes. The controls used were antibodies against VCAM-1 (BBT, No. BBA6) and against VLA-4 (Immunotech, No. 0764).
2.6 U937 cells were incubated in Fc receptor blocking buffer for 20 minutes and then added by pipette in a concentration of 1×10^6/ml and in an amount of 100 μl per well ([…]).
2.7 The plates were slowly immersed at an angle of 45° in stop buffer (100 mM NaCl, 100 μM MgCl2, 100 μM MnCl2, 100 μM CaCl2 in 25 mM tris, pH 7.5) and shaken off. The process was repeated.
2.8 50 μl/well of a dye solution (16.7 μg/ml of Hoechst Dye 33258, 4% formaldehyde, 0.5% Triton X-100 in PBS) were then incubated on the plates for 15 minutes. […]
Turning to `CC(C)C[C@@H](C(=O)N[C@H](C)CC(=O)O)N1C(=O)N(Cc2ccc(/C=C/c3ccccc3)cc2)C(C)(C)C1=O` [Example 1, (R)-3-((S)-2-(4,4-Dimethyl-3-(4-styrylbenzyl)-2,5-dioxoimidazolidin-1-yl)-2-(2-methylpropyl)acetylamino)-3-methylpropionic Acid], the midpoint of inhibition, the IC50, lay at 3.2 µM.
In the case of `CC(C)C[C@@H](C(=O)N[C@H](C)CC(=O)O)N1C(=O)N(Cc2ccc(CCc3ccccc3)cc2)C(C)(C)C1=O` [Example 2, (R)-3-((S)-2-(4,4-Dimethyl-3-(4-(2-phenylethyl)benzyl)-2,5-dioxoimidazolidin-1-yl)-2-(2-methylpropyl)acetylamino)-3-methylpropionic Acid] it was 118 µM; in that of `CC(C)C[C@@H](C(=O)N[C@H](CC(=O)O)c1ccccc1)N1C(=O)N(Cc2ccc(/C=C/c3ccccc3)cc2)C(C)(C)C1=O` [Example 3, (R)-3-((S)-2-(4,4-Dimethyl-3-(4-styrylbenzyl)-2,5-dioxoimidazolidin-1-yl)-2-(2-methylpropyl)acetylamino)-3-phenylpropionic Acid], 0.56 µM; in that of `CC(C)C[C@@H](C(=O)NCCC(=O)O)N1C(=O)N(Cc2ccc(/C=C/c3ccccc3)cc2)C(C)(C)C1=O` [Example 4, 3-((S)-2-(4,4-Dimethyl-3-(4-styrylbenzyl)-2,5-dioxo-imidazolidin-1-yl)-2-(2-methylpropyl)acetylamino)propionic Acid], 27.8 µM.
`CC(C)C[C@@H](C(=O)N[C@H](CC(=O)O)c1ccc2c(c1)OCO2)N1C(=O)N(Cc2ccc(/C=C/c3ccccc3)cc2)C(C)(C)C1=O` [Example 5, (R)-3-((S)-2-(4,4-Dimethyl-3-(4-styrylbenzyl)-2,5-dioxo-imidazolidin-1-yl)-2-(2-methylpropyl)acetylamino)-3-(3,4-methylenedioxyphenyl)propionic Acid] displayed an IC50 of 0.15 µM.
In the case of `CC(C)C[C@@H](C(=O)N[C@H](CC(=O)O)c1ccc2c(c1)OCO2)N1C(=O)N(Cc2ccc(Oc3ccccc3)cc2)C(C)(C)C1=O` [Example 6, (R)-3-((S)-2-(4,4-Dimethyl-2,5-dioxo-3-(4-phenyloxy-20 benzyl)imidazolidin-1-yl)-2-(2-methylpropyl)acetylamino)-3-(3,4-methylenedioxyphenyl)propionic Acid] it was 16.4 µM.
Turning to `CC(C)C[C@@H](C(=O)N[C@H](C)CC(=O)O)N1C(=O)N(Cc2ccc(OCc3ccccc3)cc2)C(C)(C)C1=O` [Example 7, (R)-3-((S)-2-(3-(4-Benzyloxybenzyl)-4,4-dimethyl-2,5-dioxoimidazolidin-1-yl)-2-(2-methylpropyl)acetylamino)-3-methylpropionic Acid], half-maximal inhibition (IC50) required 2.9 µM.
In the case of `Cc1ccccc1/C=C/c1ccc(CN2C(=O)N([C@@H](CC(C)C)C(=O)N[C@H](C)CC(=O)O)C(=O)C2(C)C)cc1` [Example 8, (R)-3-((S)-2-(4,4-Dimethyl-3-(4-(2-(2-methylphenyl)-vinyl)benzyl)-2,5-dioxoimidazolidin-1-yl)-2-(2-methyl-propyl)acetylamino)-3-methylpropionic Acid] it was 2 µM; in that of `Cc1ccccc1/C=C/c1ccc(CN2C(=O)N([C@@H](CC(C)C)C(=O)N[C@H](CC(=O)O)c3ccccc3)C(=O)C2(C)C)cc1` [Example 9, (R)-3-((S)-2-(4,4-Dimethyl-3-(4-(2-(2-methylphenyl)-vinyl)benzyl)-2,5-dioxoimidazolidin-1-yl)-2-(2-methyl-propyl)acetylamino)-3-phenylpropionic Acid], 0.18 µM; in that of `COc1cccc(C(CC(=O)O)NC(=O)[C@H](CC(C)C)N2C(=O)N(Cc3ccc(/C=C/c4ccccc4)cc3)C(C)(C)C2=O)c1` (stereo partly drawn) [Example 10, 3-((S)-2-(4,4-Dimethyl-3-(4-styrylbenzyl)-2,5-dioxo-imidazolidin-1-yl)-2-(2-methylpropyl)acetylamino)-3-(3-methoxyphenyl)propionic Acid], 24.5 µM.
For the molecule `CC(C)C[C@@H](C(=O)NC(CC(=O)O)c1ccc(F)cc1)N1C(=O)N(Cc2ccc(/C=C/c3ccccc3)cc2)C(C)(C)C1=O` (stereo partly drawn) [Example 11, 3-((S)-2-(4,4-Dimethyl-3-(4-styrylbenzyl)-2,5-dioxo-imidazolidin-1-yl)-2-(2-methylpropyl)acetylamino)-3-(4-fluorophenyl)propionic Acid], the midpoint of inhibition, the IC50, lay at 18 µM.
The figure for `COc1ccc(C(CC(=O)O)NC(=O)[C@H](CC(C)C)N2C(=O)N(Cc3ccc(/C=C/c4ccccc4)cc3)C(C)(C)C2=O)cc1F` (stereo partly drawn) [Example 12, 3-((S)-2-(4,4-Dimethyl-3-(4-styrylbenzyl)-2,5-dioxo-imidazolidin-1-yl)-2-(2-methylpropyl)acetylamino)-3-(3-fluoro-4-methoxyphenyl)propionic Acid] is 17.5 µM; for `Cc1cccc(C(CC(=O)O)NC(=O)[C@H](CC(C)C)N2C(=O)N(Cc3ccc(/C=C/c4ccccc4)cc3)C(C)(C)C2=O)c1` (stereo partly drawn) [Example 13, 3-((S)-2-(4,4-Dimethyl-3-(4-styrylbenzyl)-2,5-dioxo-imidazolidin-1-yl)-2-(2-methylpropyl)acetylamino)-3-(3-methylphenyl)propionic Acid] it is 64.6 µM; for `CC(C)C[C@@H](C(=O)NC(CC(=O)O)c1ccccc1F)N1C(=O)N(Cc2ccc(/C=C/c3ccccc3)cc2)C(C)(C)C1=O` (stereo partly drawn) [Example 14, 3-((S)-2-(4,4-Dimethyl-3-(4-styrylbenzyl)-2,5-dioxo-imidazolidin-1-yl)-2-(2-methylpropyl)acetylamino)-3-(2-fluorophenyl)propionic Acid] it is 15.3 µM.
In the case of `CC(C)C[C@@H](C(=O)NC(CC(=O)O)c1cccc(F)c1)N1C(=O)N(Cc2ccc(/C=C/c3ccccc3)cc2)C(C)(C)C1=O` (stereo partly drawn) [Example 15, 3-((S)-2-(4,4-Dimethyl-3-(4-styrylbenzyl)-2,5-dioxo-imidazolidin-1-yl)-2-(2-methylpropyl)acetylamino)-3-(3-fluorophenyl)propionic acid] it was 61.5 µM; in that of `CCCCc1ccc(C(CC(=O)O)NC(=O)[C@H](CC(C)C)N2C(=O)N(Cc3ccc(/C=C/c4ccccc4)cc3)C(C)(C)C2=O)cc1` (stereo partly drawn) [Example 16, 3-(4-Butylphenyl)-3-((S)-2-(4,4-dimethyl-3-(4-styrylbenzyl)-2,5-dioxoimidazolidin-1-yl)-2-(2-methyl-propyl)acetylamino)propionic Acid], 34.9 µM.
With `CC(C)C[C@@H](C(=O)NC(CC(=O)O)c1ccc(Cl)cc1)N1C(=O)N(Cc2ccc(/C=C/c3ccccc3)cc2)C(C)(C)C1=O` (stereo partly drawn) [Example 17, 3-(4-Chlorophenyl)-3-((S)-2-(4,4-dimethyl-3-(4-styrylbenzyl)-2,5-dioxoimidazolidin-1-yl)-2-(2-methyl-propyl)acetylamino)propionic Acid], the IC50 was 36.6 µM.
